# Source: US9017692B2, “Antimicrobial agent, bacterial strain, biosynthesis, and methods of use” (priority 2011, dated 2015)
# Legend:
# [1] = test system: Listeria monocytogenes Scott A; test: Spot-on-lawn antimicrobial activity; type: cell-based; conditions: TSBYE
# Protocol: (§1) Spot-on-lawn method [He, Z., et al., Appl. Environ. Microbiol., (2007) 73:168-178] was used for the bioassay of antimicrobial activity. Bacterial indicators were incubated at 37° C. for 24 h, except Pseudomonas putida, Clostridium difficile and methycillin resistant Staphylococcus aureus which were incubated for 48 h (Table 1). The indicator overlay was prepared by pouring 10 ml soft agar (seeded with 10 μL indicator culture) onto tryptose agar as basal medium in a petri dish. Purified antimicrobials were two-fold serially diluted and aliquots (10 μL each) were spotted onto the soft agar. The plates were incubated overnight and inspected for the presence of growth inhibition zones. Antimicrobial activity was expressed in arbitrary units (AU)/mL; this value is the reciprocal of the highest dilution displaying a zone of inhibition corresponding to 1 mL of the non-diluted antimicrobial preparation.
# (§2) Purified paenibacterin was used for the antimicrobial spectrum test. Microorganisms tested for sensitivity to this compound included pathogenic (e.g., Salmonella Typhimurium, Escherichia coli O157:H7, Listeria monocytogenes, and Staphylococcus aureus) and non-pathogenic (e.g., Escherichia coli K-12, Pseudomonas putida, and Enterococcus faecalis) bacteria (Table 1).
# [2] = test system: Lactobacillus plantarum ATCC 8014; test: Spot-on-lawn antimicrobial activity; type: cell-based; conditions: MRS
# Protocol: as §1, §2
# [3] = test system: L. lactis ATCC 11454; test: Spot-on-lawn antimicrobial activity; type: cell-based; conditions: MRS
# Protocol: as §1, §2
# [4] = test system: Yersinia enterocolitica; test: Spot-on-lawn antimicrobial activity; type: cell-based; conditions: TSBYE
# Protocol: as §1, §2
# [5] = test system: Enterococcus faecalis ATCC 29212; test: Spot-on-lawn antimicrobial activity; type: cell-based; conditions: MRS
# Protocol: as §1, §2
# [6] = test system: Clostridium difficile A515; test: Spot-on-lawn antimicrobial activity; type: cell-based; conditions: BHIYE
# Protocol: as §1, §2
# [7] = test system: Staphylococcus aureus ATCC 6538; test: Spot-on-lawn antimicrobial activity; type: cell-based; conditions: TSBYE
# Protocol: as §1, §2
# [8] = test system: Bacillus cereus ATCC 14579; test: Spot-on-lawn antimicrobial activity; type: cell-based; conditions: TSBYE
# Protocol: as §1, §2
# [9] = test system: Salmonella enterica ser. Typhimurium; test: Spot-on-lawn antimicrobial activity; type: cell-based; conditions: TSBYE
# Protocol: as §1, §2
# [10] = test system: Pseudomonas putida ATCC 45491; test: Spot-on-lawn antimicrobial activity; type: cell-based; conditions: TSBYE
# Protocol: as §1, §2
# [11] = test system: MSSA ATCC 29213 SAU.42; test: microbe, parasite or virus in culture; conditions: SAU.42, MSSA ATCC 29213; NBS 96-well plates
# Protocol: (§3) The activity of paenibacterin against several strains of Gram-positive and Gram-negative foodborne pathogens is summarized in Table 10. The data is reported as minimum inhibitory concentrations (MIC) as an average of three replicates for paenibacterin against the various listed bacterial strains. […] MICs were determined according to the CLSI broth microdilution method (see, Clinical and Laboratory Standards Institute (CLSI). 2009. Methods for dilution antimicrobial susceptibility tests for bacteria that grow aerobically; approved standard. […]. CLSI, Wayne, Pa.). Briefly, HPLC-purified paenibacterin was dissolved in methanol and diluted to appropriate concentration with cation-adjusted Mueller-Hinton II broth (Difco). Aliquots (25 μl) of serially-diluted paenibacterin was dispensed into wells of a 96-well plate; an equal amount of 1/10 diluted overnight bacterial culture was added to wells. Plates were incubated at 35° C. for 24 h. Cell growth after incubation was examined and determined using a microtiter plate reader at 600 nm. Concentration of paenibacterin is determined based on a molecular weight of 1604 Da.
# (§4) The activity of paenibacterin was further tested against clinical isolates of the following Gram-positive bacteria: methicillin-sensitive Staphylococcus aureus (MSSA), methicillin-resistant S. aureus (MRSA), vancomycin-sensitive Enterococcus faecalis, vancomycin-resistant E. faecalis (VRE), Streptococcus pneumoniae, and laboratory derived daptomycin-resistant (DR) MSSA, MRSA, and VRE strains. The MICs were determined using the above described CLSI broth microdilution method, in which the method was performed with non-binding surface coated (NBS) 96-well plates.
# [12] = test system: DR-VRE from EFS.807 EFS.2731; test: microbe, parasite or virus in culture; conditions: EFS.2731, DR-VRE from EFS.807; NBS 96-well plates
# Protocol: as §3, §4
# [13] = test system: DR-MSSA from SAU.42 SAU.278; test: microbe, parasite or virus in culture; conditions: SAU.278, DR-MSSA from SAU.42; NBS 96-well plates
# Protocol: as §3, §4
# [14] = test system: DR-MRSA from MW2 SP SAU.1616; test: microbe, parasite or virus in culture; conditions: SAU.1616, DR-MRSA from MW2 SP; NBS 96-well plates
# Protocol: as §3, §4
# [15] = test system: WT ATCC 49619 SPN.31; test: microbe, parasite or virus in culture; conditions: SPN.31, WT ATCC 49619; NBS 96-well plates
# Protocol: as §3, §4
# [16] = test system: PMB-R, KPN.2463; test: MIC, CLSI broth microdilution, Gram-negative clinical isolates; type: cell-based, Klebsiella pneumoniae
# Protocol: (§5) Plates were incubated at 35° C. for 24 h.
# (§6) The activity of paenibacterin was also tested against clinical isolates of the following Gram-negative bacterial strains: four strains of the species Pseudomonas aeruginosa (PAE), three strains of the species Acinetobacter baumannii (ABA), two strains of the species Escherichia coli (ECO), and four strains of the species Klebsiella pneumoniae (KPN). Particularly, the strains of Gram-negative bacteria included polymyxin B-resistant (PMB-R) and polymyxin B-sensitive (PMB-S) strains of each above listed species. The MICs were determined using the above described CLSI broth microdilution method, in which the method was performed with both non-binding surface coated (NBS) and polystyrene (PS) 96-well plates (Tables 11 and 12, respectively). The MICs were generally lower in the NBS 96-well plates as compared to the PS 96-well plates.
# [17] = test system: KPN.674; test: as above; type: cell-based, Klebsiella pneumoniae
# Protocol: as §5, §6
# [18] = test system: KPN.2317; test: as above; type: cell-based, Klebsiella pneumoniae
# Protocol: as §5, §6
# [19] = test system: PMB-S, KPN.2461; test: as above; type: cell-based, Klebsiella pneumoniae
# Protocol: as §5, §6
substance,measurement,setting,value
paenibacterin,Antimicrobial activity (AU/ml),[1],800 AU/ml
same,Antimicrobial activity (AU/ml),[2],400 AU/ml
same,Antimicrobial activity (AU/ml),[3],800 AU/ml
same,Antimicrobial activity (AU/ml),[4],1600 AU/ml
same,Antimicrobial activity (AU/ml),[5],0 AU/ml
same,Antimicrobial activity (AU/ml),[5]; listed as Paenibacterin,no activity
same,Antimicrobial activity (AU/ml),[6],200 AU/ml
same,Antimicrobial activity (AU/ml),[7],100 AU/ml
same,Antimicrobial activity (AU/ml),[8],800 AU/ml
same,Antimicrobial activity (AU/ml),[9],400 AU/ml
same,Antimicrobial activity (AU/ml),[10],400 AU/ml
same,Minimum inhibitory concentration (MIC),[11],32 µg/mL
same,Minimum inhibitory concentration (MIC),[12],8 µg/mL
same,Minimum inhibitory concentration (MIC),[13],64 µg/mL
same,Minimum inhibitory concentration (MIC),[14],32 µg/mL
same,Minimum inhibitory concentration (MIC),[15],64 µg/mL
same,Minimum inhibitory concentration (MIC),"[16]; KPN.2463 (PMB-R), NBS 96-well plates",8 µg/mL
same,Minimum inhibitory concentration (MIC),"[16]; KPN.2463, PS 96-well plates",32 µg/mL
same,Minimum inhibitory concentration (MIC),[17]; NBS 96-well plates,8 µg/mL
same,Minimum inhibitory concentration (MIC),[17]; PS 96-well plates,32 µg/mL
same,Minimum inhibitory concentration (MIC),[18]; NBS 96-well plates,64 µg/mL
same,Minimum inhibitory concentration (MIC),[18]; PS 96-well plates,64 µg/mL
same,Minimum inhibitory concentration (MIC),"[19]; KPN.2461 (PMB-S), NBS 96-well plates",4 µg/mL
same,Minimum inhibitory concentration (MIC),"[19]; KPN.2461, PS 96-well plates",32 µg/mL
